# In patent US20220118117A1, “MODULATORS OF METABOTROPIC GLUTAMATE RECEPTOR 4” (The General Hospital Corporation, priority 2019, published 2022):
# Where “and” joins values, the source holds several entries; their conditions need not be identical. Equal entries are not always repeated.
# Experiments:
# mGluR4 [1] = target: mGluR4 (Homo sapiens, UniProt Q14833); experiment: competitive binding (radioligand replacement) assay with [3H]4 in mGluR4 transfected CHO cells; design: expressed in transfected cells; host or cells: CHO cells; conditions: 2 nM [3H]4, read-out: IC50 (nM), affinity to mGluR4
# Procedure: In Vitro mGluR4 Binding Assay. CHO cells expressing mGluR4 were used for all binding assay protocols. For competitive binding, 2 nM of [^3H]4 was used together with increased concentrations of test compounds ranging from 0.01 nM to 10 μM. Each test tube contained 50 000 freshly harvested CHO cells expressing mGluR4 cultured in HAMs cell culture medium with 100 nM of glutamate, penicillin-streptomycin (100 units), and 1 mM G418. [3H]4 (2 nM) was added to the cell extract with and without test compounds on ice and then incubated for 30 min at room temperature. Samples were centrifuged at 1200 rpm for 10 min at 4° C. and washed three times with a cold cell culture medium as a washing buffer. Samples were lysed by adding 100 μL of 0.5% NaOH and heated using a heating block (56° C., 30 min). Samples were cooled with an ice bath and transferred to Solvent-Saver scintillation vials (VWR International LLC.). To obtain binding parameters, the scintillation liquid (PerkinElmer, Optima Gold) was added prior to counting with a scintillation counter (Packard TriCarb Model, 1 min/vial). Nonspecific binding was determined using 10 μM of nonradioactive test compound, and specific binding was determined by extracting the nonspecific binding from total binding. All measurements were done in triplicate and analyzed with GraphPad Prism software (GraphPad Software Inc.).
# solution stability = assay type: physicochemical
# Procedure: Three pH values, 5, 7.4 and 9.4 were selected to check the solution stability. Aqueous solutions with different pH values were established using the following buffers: sodium acetate-KCl—HCl buffer (20 mM, pH 5.0), phosphate buffer (20 mM, pH 7.4), and boric acid-KCl—NaOH buffer (20 mM, pH 9.4). 891 μL of each pH buffer was placed in different tubes. 9 μL (1 mM) of the sample stock (4, 13, 15 and Diltiazem) was transferred to a particular buffer tube and mixed just before the time 0 min. The mixture was vortexed and incubated at 37° C. After the incubation at the different time points (0, 15, 30, 60, and 120 min), aliquots of 50 μL samples were quenched with 100 μL of ice-cold acetonitrile with 25 μM internal reference, respectively, and analyzed by HPLC. The percentage of the remaining intact compound was calculated by (peak area at the specific time point)/(peak area at 0 min)×100. Every sample was assayed three times.
# microsomal stability = assay type: in vitro ADME, Sprague-Dawley rat; conditions: rat liver microsomes, NADPH
# Procedure: First, Sprague-Dawley rat liver microsomes (0.5 mg/mL, Sigma-Aldrich, No. M9066) was incubated with PBS (50 mM, pH=7.4) in a reaction tube at 37° C. for 3 min. To the reaction tube were added the test compound (2 μM) and then cofactor, NADPH (1 mM), to start the reaction. The mixture was shaken in a water bath at 37° C. At different time points (0, 5, 10, 15, 30 min), aliquots (50 μL) were removed and added to 100 μl of cold acetonitrile with internal standard (25 μM) to quench the reaction. The precipitated material was by centrifugation (10,000×g, 10 min, 4° C.), and the supernatant was analyzed by RP-HPLC (Column: Phenomenex Luna© 5 μm, Cis, 100 Å, 250×4.6 mm). The RP-HPLC was carried out by using a 15-min gradient method: eluent A: 0.1% formic acid/H2O; eluent B: 0.1% formic acid/CH3CN; gradient: […]; 5% B to 95% B from 1 to 9 min, 95% B from 9 to 12 min, 95% to 5% B from 12 to 13 min, 5% B from 13 to 15 min; flow rate at 0.7 mL/min.
# The in peak area ratio (test compound peak area at a time point/peak area at 0 min time point) was plotted against time and the gradient of the line was determined. Subsequently, the half-life (t1/2) was calculated as 0.693/k, where the elimination rate constant k equals to −gradient. V (μL/mg) was obtained as a ratio of volume of incubation […]/protein in the incubation (mg). Finally, the intrinsic clearance (CLint) (μL/min/mg protein) was calculated as V*0.693/t1/2.
# plasma stability = assay type: in vitro ADME; conditions: rat plasma; for Plasma stability, remaining of the intact test compound: 37° C.
# Procedure: Briefly, each tube is added 882 μL of 1:1 diluted rat plasma with phosphate buffer (pH 7.4). 18 μL (100 μM) of DMSO stock solution of the test compound (4, 13 and 15) or positive control compound (Diltiazem) was added to make a final compound concentration 2 μM in the plasma solution and final DMSO content 2%. The mixture was incubated at 37° C. After the incubation at 0, 15, 30, 60, and 120 min time points, aliquots of 50 μL samples were quenched with 100 μL of ice-cold acetonitrile with 25 μM of the internal reference (for HPLC analysis), respectively. The quenched samples were centrifuged at 10,000×g, and the supernatant was analyzed by HPLC. The percentage of remaining intact test compound was calculated by (peak area at the specific time point)/(peak area at 0 min)×100. Every sample was assayed three times.
# mGluR4 [2] = target: T1, mGluR4 (Rattus norvegicus, UniProt P31423); experiment: PET blocking studies of [18F]15 binding; assay type: in vivo, Sprague Dawley rats
# T1 construct: from tissue; host or cells: brain of living male Sprague Dawley rats
# Procedure: PET Imaging of [^18F]15 in Rats. Altogether 24 normal male Sprague Dawley rats were used for the imaging studies comprising 15 baseline studies and 15 blocking studies. Rats were anaesthetized with isoflurane/nitrous oxide (1.0-1.5% isoflurane, with oxygen flow of 1-1.5 L/min), and catheter was installed into tail vein for the administration of [^18F]15. Dynamic volumetric PET data was acquired with a PET-CT scanner for 60 min (Triumph-II, Tri-Foil Imaging, Northridge, Calif.). The vital signals such as heart rate and respiration rate were monitored during scanning period. PET data acquisition was started immediately after administration of radioactivity with the dose range of 18-34 MBq depending on the size of the rat followed by CT imaging to obtain anatomical information and data for attenuation correction of PET data. PET data was processed by using maximum-likelihood expectation-maximization (MLEM) algorithm with 30 iterations to dynamic volumetric images, and corrected for uniformity, scatter, and attenuation. The CT data was processed by the modified Feldkamp algorithm using matrix volumes of 512×512×512 and pixel size of […]. Co-registration of CT and PET images and analysis of PET images were carried out using PMOD3.2 software (PMOD Technology, Zurich, Switzerland).
# For blocking studies, the same scanning protocols were used as for the baseline studies. For mGluR4 blocking experiments, 1, 2 or 3 mg/kg of 13 or 15 dissolved in a saline solution with 10% DMSO, 5% Tween-20 and 85% PBS was injected 1 min before iv administration of [^18F]15.
# T1 sequence (P31423 33-912): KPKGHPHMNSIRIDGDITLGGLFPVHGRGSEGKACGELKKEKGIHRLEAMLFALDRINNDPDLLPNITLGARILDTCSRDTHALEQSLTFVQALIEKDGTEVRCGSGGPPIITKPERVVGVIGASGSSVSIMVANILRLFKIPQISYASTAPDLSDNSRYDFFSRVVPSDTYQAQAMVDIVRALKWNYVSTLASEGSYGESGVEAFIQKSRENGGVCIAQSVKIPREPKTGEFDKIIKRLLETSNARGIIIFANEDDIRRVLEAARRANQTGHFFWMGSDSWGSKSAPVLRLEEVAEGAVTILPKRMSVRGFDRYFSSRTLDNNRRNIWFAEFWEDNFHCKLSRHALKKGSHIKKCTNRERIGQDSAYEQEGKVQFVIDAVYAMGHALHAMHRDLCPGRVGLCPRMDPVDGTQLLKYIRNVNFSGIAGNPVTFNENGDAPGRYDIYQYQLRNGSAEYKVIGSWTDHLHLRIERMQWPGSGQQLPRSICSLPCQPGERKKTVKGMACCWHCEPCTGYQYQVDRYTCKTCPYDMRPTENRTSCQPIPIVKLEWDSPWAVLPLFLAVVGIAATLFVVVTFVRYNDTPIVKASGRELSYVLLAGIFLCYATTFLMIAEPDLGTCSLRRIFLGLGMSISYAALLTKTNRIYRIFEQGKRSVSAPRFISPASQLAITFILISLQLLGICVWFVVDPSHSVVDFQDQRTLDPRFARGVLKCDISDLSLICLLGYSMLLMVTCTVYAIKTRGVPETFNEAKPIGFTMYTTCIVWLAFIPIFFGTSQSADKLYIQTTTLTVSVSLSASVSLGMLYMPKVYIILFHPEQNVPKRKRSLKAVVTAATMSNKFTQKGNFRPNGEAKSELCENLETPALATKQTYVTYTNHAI
# Chain of mGluR4 (Homo sapiens, UniProt Q14833) (Q14833 33-912): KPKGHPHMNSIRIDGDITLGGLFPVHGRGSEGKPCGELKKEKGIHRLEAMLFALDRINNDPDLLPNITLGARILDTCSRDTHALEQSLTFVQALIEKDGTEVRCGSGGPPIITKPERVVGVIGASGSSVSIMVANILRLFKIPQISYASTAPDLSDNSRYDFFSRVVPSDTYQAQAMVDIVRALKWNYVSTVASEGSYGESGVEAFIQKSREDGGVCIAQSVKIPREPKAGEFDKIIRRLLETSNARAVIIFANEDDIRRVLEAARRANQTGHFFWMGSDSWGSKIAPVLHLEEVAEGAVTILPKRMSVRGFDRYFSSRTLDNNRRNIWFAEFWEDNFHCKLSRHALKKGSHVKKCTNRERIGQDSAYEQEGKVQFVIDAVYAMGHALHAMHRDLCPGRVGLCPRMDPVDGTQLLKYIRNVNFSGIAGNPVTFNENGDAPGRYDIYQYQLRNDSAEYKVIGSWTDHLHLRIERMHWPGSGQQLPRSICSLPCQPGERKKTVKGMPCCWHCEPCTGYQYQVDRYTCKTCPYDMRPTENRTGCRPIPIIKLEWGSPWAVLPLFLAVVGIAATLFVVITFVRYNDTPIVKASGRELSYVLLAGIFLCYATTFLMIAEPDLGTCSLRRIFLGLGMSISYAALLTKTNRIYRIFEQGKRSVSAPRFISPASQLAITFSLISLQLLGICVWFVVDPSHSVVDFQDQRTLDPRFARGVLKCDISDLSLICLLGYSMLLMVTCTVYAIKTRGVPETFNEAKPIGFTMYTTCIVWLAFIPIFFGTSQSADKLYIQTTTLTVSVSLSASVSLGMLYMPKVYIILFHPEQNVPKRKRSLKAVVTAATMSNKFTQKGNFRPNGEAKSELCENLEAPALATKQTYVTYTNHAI
SMILES,IC50 (mGluR4 [1]),"The solution stability, The intact ± SEM at 120 min (%) (solution stability; pH = 5.0, 37° C.)","The solution stability, The intact ± SEM at 120 min (%) (solution stability; pH = 7.4, 37° C.)","The solution stability, The intact ± SEM at 120 min (%) (solution stability; pH = 9.4, 37° C.)",The microsome stability Clint (μL/min/mg protein) (microsomal stability),The microsome stability t1/2 (microsomal stability),"Plasma stability, remaining of the intact test compound (plasma stability; 0 min)","Plasma stability, remaining of the intact test compound (plasma stability; 15 min)","Plasma stability, remaining of the intact test compound (plasma stability; 30 min)","Plasma stability, remaining of the intact test compound (plasma stability; 60 min)","Plasma stability, remaining of the intact test compound (plasma stability; 120 min)","The plasma stability, The intact ± SEM at 120 min (%) (plasma stability; 120 min)","blocking effect on [18F]15 binding (mGluR4 [2]; 1 mg/kg, pre-administration)",blocking of [18F]15 binding in the whole brain (mGluR4 [2]; blocking agent injected 1 min before [18F]15),blocking of [18F]15 binding in striatum (mGluR4 [2]; dose 1 mg/kg),blocking of [18F]15 binding in striatum (mGluR4 [2]; dose 2 mg/kg),blocking of [18F]15 binding in striatum (mGluR4 [2]; dose 3 mg/kg)
COc1cc(NC(=O)c2ccccn2)ccc1Cl [Compound 4],5.1 nM,92.7 ± 3.1%,97.3 ± 1.1%,89.1 ± 2.1%,96.2 μL/min/mg protein,14.41 min and 14.4 min,100.00 ± 4.65%,94.45 ± 1.65%,97.56 ± 11.8%,100.35 ± 8.04%,98.21 ± 6.32%,98.2 ± 6.3%,–,–,–,–,–
CSc1cc(NC(=O)c2ccccn2)ccc1Cl [Compound 13],3.4 nM,85.9 ± 0.8%,87.9 ± 3.4%,89.3 ± 1.3%,54.8 μL/min/mg protein,25.30 min,100.00 ± 0.21%,95.34 ± 12.08%,95.27 ± 7.76%,93.62 ± 8.76%,91.52 ± 2.49%,91.5 ± 2.5%,25-30%,22-25%,18%,20%,28%
COc1ccc([C@@H]2Sc3ccccc3N(CCN(C)C)C(=O)[C@@H]2OC(C)=O)cc1 [Diltiazem],–,94.7 ± 1.4%,99.0 ± 5.7%,69.8 ± 2.6%,–,–,100.00 ± 8.98%,87.33 ± 9.53%,75.23 ± 4.03%,58.91 ± 13.39%,48.97 ± 10.63%,49.0 ± 10.6%,–,–,–,–,–
